# According to patent US10441582B2 (priority 2016, dated 2019):
# Key:
# [1] = test system: solid tumor of MKN-45 cells; assay: Solid tumor of MKN-45 cells in BALB/c nude mice, intratumoral administration; type: in vivo; conditions: G5, 20 mg/kg intratumoral, FIG. 9
# Experimental: After about 2 weeks, the ascites was collected and centrifuged at 2000 rpm, and the precipitate was washed twice and then stained with 0.4% […] blue, thereby obtaining 5×10^6 cells/100 μL.
# In the first administration, a suspension volume of 50 μL/head was used regardless of body weight.
# The medium dose used was a 2-fold dilution of the prepared injectable suspension, and the low dose used was a 4-fold dilution of the prepared injectable suspension.
# The injectable suspension was dissolved by heating to a temperature of 42 to 45° C. on a water bath. Next, 20 μL of the solution was administered to the apex of the tumor by means of a 0.3 mL insulin syringe, and 10 μL of the solution was administered to each of three points of the bottom side of the tumor. Accordingly, a total of 50 μL of the solution was administered to the tumor.
# On the final day of the test, the animals were biopsied and visually observed, and the mean weight of the tumors was measured.
# [2] = G5, 20 mg/kg i.v., FIG. 2
# Text: Fifty 5-week-old BALB/c nude mice (produced by Central Lab Animal Inc., Korea) were purchased and acclimated for 1 week before use in the test.
# The data are expressed as mean±S.D. The results were statistically analyzed by ONE-WAY ANOVA and Student's t-test methods.
# MKN-45 cells = assay: MTT assay, cytotoxicity against MKN-45 cells; conditions: Homo sapiens, MKN-45, 24 h, read-out: IC50 (drug concentration that resulted in 50% of cell viability)
# Experimental: The MKN-45 cell line was subcultured with RPMI1640 medium (supplemented with L-glutamine and 10% FBS) in a 5% CO2 incubator at 37° C. for 48 hours, and was then used in the test.
# The cell line prepared in (2) above was added to each well.
# Then, the cells were cultured in a 5% CO2 incubator at 37° C. for 24 hours, and 50 μL of MTT reagent was added thereto at a concentration of 2 mg/mL. Then, the cells were incubated in an incubator at 37° C. for 4 hours.
# The cell culture was centrifuged to remove the supernatant, and 200 μL of DMSO was added to each well to dissolve the MTT-stained precipitate, after which the OD540 value at a wavelength of 540 nm was measured with an ELISA reader.
compound,measurement,setting,value
CC(=O)O[C@H]1C(=O)[C@@]2(C)[C@H]([C@H](OC(=O)c3ccccc3)[C@]3(O)C[C@H](OC(=O)[C@H](O)[C@@H](NC(=O)c4ccccc4)c4ccccc4)C(C)=C1C3(C)C)[C@]1(OC(C)=O)CO[C@@H]1C[C@@H]2O [Paclitaxel],State of solid tumor (photographs),[1]; 2 weeks after administration,proliferated
same,Proliferation of tumor cells,[1],≥ 5 fold
same,Decrease in body weight,[2],significant decrease in body weight
same,IC50,MKN-45 cells,0.1 µg/mL
